From paper PMC8760490, “Discovery of novel furanylbenzamide inhibitors that target oncogenic tyrosine phosphatase SHP2 in leukemia cells” (The Journal of Biological Chemistry, 2021)

Legend:
[1] = test system: Kasumi-1 acute myeloid leukemia (AML) cells; test: Cell viability (CellTiter-Glo), Kasumi-1; assay type: cell-based; settings: various concentrations, 3 days
Experimental: (§1) Inhibition of SHP2 has been reported to inhibit the growth of cancer cells including Kasumi-1 acute myeloid leukemia (AML) and KYSE-520 esophageal cancer cells ([30]). […] Thus, we treated two TNBC cell lines, BT-549 and MDA-MB-468, with SBI-4668 or the SHP2 allosteric inhibitor SHP099 at various concentrations and determined cell viability after 72 h, compared with the vehicle control (Fig. 4C). […] Next, we performed an 11-day colony formation assay with TNBC cells treated with SBI-4668 or SHP099 at 5, 10, or 20 μM (Fig. 4D).
(§2) Viability of AML and esophageal carcinoma cells was assessed using the ATP-depletion assay CellTiter-Glo (Promega). Cells were harvested at 1 × 10^6/ml to 2 × 10^6 cells/ml with cell numbers determined by trypan blue using the Countess Cell counter (Thermo Scientific) and resuspended in culture media. About 3000 cells (in 20 μl) were seeded in a 384-well format white and clear-bottom microplate (catalog no.: 781098; Greiner) spotted with test compound or vehicle control (DMSO) using an Echo 555 Liquid Handler. Cells were incubated for 3 days, before 10 μl of CellTiter-Glo reagent mix was added to each well and incubated for 10 min at RT. Luminescence was read on a Tecan Spark Multimode Microplate Reader, and data were analyzed using GraphPad Prism software.

[2] = test system: KYSE-520 esophageal cancer cells; test: Cell viability (CellTiter-Glo), KYSE-520; assay type: cell-based; settings: various concentrations, 3 days
Experimental: as §1, §2

[3] = target: T1, full-length SHP2 WT (SHP2-WT) (Homo sapiens, UniProt Q06124); test: DiFMUP fluorescence phosphatase inhibition assay, SHP2-WT activated with IRS-1 peptide; assay type: biochemical; settings: DiFMUP at Km (60 μM), pH 6.0
T1 construct: Recombinant human full-length SHP2 (1–594) WT and E76K mutants; made in house
Description: To test the synthesized compounds for their potential to inhibit SHP2 activity, a fluorescence intensity-based assay using 6,8-difluoro-4-methylumbelliferyl phosphate (DiFMUP) as the substrate was adapted for three recombinant SHP2 constructs: (1) the SHP2 catalytic domain (SHP2cat; residues 248–527), (2) the full-length SHP2-E76K oncogenic mutant, and (3) the full-length SHP2 WT (SHP2-WT). The recombinant SHP2 proteins were expressed and purified as described previously ([36]). A dually phosphorylated peptide derived from the insulin receptor substrate 1 (IRS-1) served as a surrogate binding protein and was used to activate SHP2-WT ([30], [36]). […] Michaelis–Menten experiments to determine the DiFMUP Michaelis–Menten constant (Km) for each SHP2 construct were performed as described previously ([36]) and yielded the following values: SHP2-WT, Km = 60 μM; SHP2-E76K, Km = 20 μM; and SHP2cat, Km = 20 μM. Relative maximum rates (Vmax) of the DiFMUP reactions expressed as relative fluorescence units per minute (RFU/min) were as follows: SHP2-WT, Vmax = 871 RFU/min; SHP2-E76K, Vmax = 2730 RFU/min; and SHP2cat, Vmax = 2912 RFU/min. IC50 values for each compound were determined from initial rates in 10-point dose–response assays using DiFMUP at a concentration corresponding to its Km value for the respective SHP2 construct. […] Replacements for the benzothiophenone were explored using analog #10.
Recombinant human full-length SHP2 (1–594) WT and E76K mutants, as well as the SHP2cat (248–527), were expressed and purified as described before ([36], [41]). Recombinant human PTP1B (1–300) and the codon-optimized STEP (280–566) catalytic domains were cloned into PET-15b and expressed as N-His-tagged fusion proteins. For expression, transformed BL21(DE3) cells were grown and induced similar as described for SHP2. Collected cells were resuspended in lysis buffer (25 mM Tris, pH 7.5, 300 mM NaCl, 50 mM imidazole, and 10% glycerol) with 100 mg/l RNaseA and were lysed with two passages using a microfluidizer. The lysate was clarified by centrifugation at 15,000g for 50 min and applied to nickel–nitrilotriacetic acid resin. The column resin was washed, and the PTP1B or STEP protein was eluted in lysis buffer at 300 mM imidazole. The PTP1B or STEP protein was further purified by S75 size-exclusion chromatography in 50 mM Tris, pH 7.5, 50 mM NaCl. The eluted peak fractions were supplemented with tris(2-carboxyethyl)phosphine to 10 mM, concentrated by ultrafiltration, and stored at −80 °C. The purified yield of PTP1B was 33 mg/l cell culture; the yield of STEP was 16 mg/l cell culture.
SHP2 inhibitors were tested at RT in a 384-well plate format standard phosphatase fluorescence intensity assay using DiFMUP (Invitrogen/Thermo Fisher Scientific) as a substrate and a total reaction volume of 25 μl. SHP2 inhibitors or vehicle (DMSO) were spotted in triplicate into a black Greiner FLUOTRAC 200 384-well microplate (catalog no.: 781076; Greiner) for a 10-point dose–response assay using an Echo 555 Liquid Handler (Labcyte, Inc). PTP working solutions were prepared at a 0.625 nM concentration (for a final concentration of 0.5 nM) in buffer containing 50 mM Bis–Tris, pH 6.0, 50 mM NaCl, 5 mM DTT, and 0.01% Tween-20. Prior to the assay, a dually phosphorylated IRS-1 peptide (625 nM [500 nM final] ([30])) was added to full-length WT SHP2 working solutions and incubated for 20 min. DiFMUP working solutions at 5× final concentration were prepared in 50 mM Bis–Tris, pH 6.0, 50 mM NaCl, and 0.01% Tween-20. About 20 μl of PTP working solution was dispensed into the microplate and incubated with inhibitor for 20 min at RT. […] The reaction was initiated by addition of 5 μl DiFMUP working solutions. Fluorescence intensity was measured in kinetic mode (every minute for 7 or 10 min) using a Tecan Spark Multimode Microplate Reader (Tecan) with an excitation wavelength of 360 nm and an emission wavelength of 460 nm. […]

MDA-MB-468 TNBC cells [4] = test: 11-day colony formation assay, MDA-MB-468; assay type: cell-based; settings: 5, 10 or 20 μM, 11 days
Experimental: as §1
(§3) MDA-MB-468 and […] triple-negative breast cancer cells were maintained in Dulbecco's modified Eagle's medium + 10% FBS supplemented with 1× penicillin–streptomycin/L-glutamine (Omega Scientific). About 1500 cells (in 300 μl) were seeded per well of a standard 24-well tissue culture plate (Falcon) and allowed to adhere for 24 h, before the addition of compound(s) as described. After a further 96 h, media were replaced with fresh media containing the same test compounds and concentrations. After 11 days, media were removed, and cells stained with 0.5% crystal violet (in 20% methanol; Sigma) for 20 min with agitation at 80 rpm. Stain was removed, and plates with stained cells were washed by being submerged in excess deionized water and allowed to air dry overnight before imaging.

MOLM-13 AML cells = test: Cell viability (CellTiter-Glo), MOLM-13; assay type: cell-based; settings: 72 h, 30 μM to 58 nM, regular MOLM-13 expressing WT SHP2 (Fig. 4G); read-out: MOLM-13 cell viability IC50 (parallel to SHP2 KO)
Experimental: as §1
Finally, we evaluated the selectivity of our top two compounds, SBI-2130 and SBI-4668, on MOLM-13 AML cells in which SHP2 was depleted using CRISPR–Cas9 KO. High-efficiency Cas9-editing MOLM-13 cells were generated by transducing MOLM-13 cells with a Cas9 lentiviral construct. Stable clones were tested for editing efficiency by performing tracking of indels by decomposition analysis ([45]), and these MOLM-13-Cas9 cells were transduced with a lentiviral construct containing an AAVS1 single-guide RNA (sgRNA) and an mCherry reporter for bulk sorting of cells with successful AAVS1 editing. SHP2 KO was achieved by transducing MOLM-13-Cas9-mCherry cells with a lentivirus, containing SHP2 dual sgRNAs, resulting in ∼80% reduction of SHP2 protein levels (Fig. 4G). SBI-2130, SBI-4668, and the SHP2 allosteric inhibitor, SHP099, were tested in parallel on regular MOLM-13 cells (expressing WT SHP2) and MOLM-13-Cas9-mCherry cells with SHP2 KO. Cells were treated with inhibitors at various concentrations (ranging from 30 μM to 58 nM) or vehicle control (DMSO) for 72 h, before cell viability was assessed.
as §2, with “Cells were incubated for 3 days, before 10 μl of CellTiter-Glo reagent mix was added to each well and incubated for 10 min at RT.” left out
For SHP2 KO, dual sgRNAs targeting SHP2 were cloned in the pLentiGuide puro vector (Addgene plasmid no. 52963 from Dr Feng Zhang) using a published protocol ([50]). […] SHP2 KO was evaluated by immunoblotting. […] For SHP2 KO, MOLM-13-Cas9-mCherry cells were seeded in nontreated 6-well plates (2 × 10^6 cells/well in 2.5 ml), with cell numbers determined by trypan blue using the Countess Cell Counter (Thermo Scientific). […]

BT-549 TNBC cells [5] = test: TNBC cell viability (CellTiter-Glo), BT-549; assay type: cell-based; settings: various concentrations
Experimental: as §1
(§4) Triple-negative breast cancer cell viability was assessed using the ATP-depletion assay CellTiter-Glo. Briefly, 2500 cells in 25 μl media (RPMI + 10% FBS + 1× penicillin–streptomycin [Omega Scientific]) were seeded per well of a 384-well tissue culture–treated plate (Greiner). About 25 nl of 1000× test compound were added using a Labcyte Echo acoustic dispenser, and the cells were incubated for 5 days before addition of 10 μl of CellTiter-Glo reagent as described by the manufacturer. Luminescence was detected on a BioTek Synergy 2 microplate reader, and the values normalized to those of vehicle (DMSO)-treated controls before being plotted using GraphPad Prism.

MDA-MB-468 TNBC cells [6] = test: TNBC cell viability (CellTiter-Glo), MDA-MB-468; assay type: cell-based; settings: various concentrations
Experimental: as §1, §4

BT-549 TNBC cells [7] = test: 11-day colony formation assay, BT-549; assay type: cell-based; settings: 5, 10 or 20 μM, 11 days
Experimental: as §1, §3

Row | IC50 [3] [µM] | IC50 (MOLM-13 AML cells) [µM] | Compound | effect on Kasumi-1 cell growth [1] | effect on KYSE-520 cell growth [2] | colony formation, MDA-MB-468 (MDA-MB-468 TNBC cells [4]) | effect on BT-549 cell viability (BT-549 TNBC cells [5]) | effect on MDA-MB-468 cell viability (MDA-MB-468 TNBC cells [6]) | colony formation, BT-549 (BT-549 TNBC cells [7])
1 | > 100 | – | CC(C)NC(=O)c1cccc(-c2ccc(/C=C3\Sc4ccccc4C3=O)o2)c1 [SBI-9639, (Z)-N-isopropyl-3-(5-((3-oxobenzo[b]thiophen-2(3H)-ylidene)methyl)furan-2-yl)benzamide] | no notable effects | no notable effects | – | – | – | –
2 | – | 9.4 | CC1(N)CCN(c2cnc(-c3cccc(Cl)c3Cl)c(N)n2)CC1 [SHP099, reference compound] | – | – | very weak effect | very minor effect | very minor effect | very weak effect
